Results on 31 compounds are retold here after US11420944B2, “Voltage-dependent t-type calcium channel blocker” (Nippon Chemiphar Co., Ltd., priority 2016, dated 2022).

Bounds are passed on as bounds.

For the first assay, the target named is T1, human Cav3.2 channels (Homo sapiens, UniProt O95180).
T1 construct: expressed in transfected cells; host or cells: HEK293 cells (ATCC No. CRL-1573), plasmid pcDNA3.1(+)
T1 sequence (O95180 whole entry): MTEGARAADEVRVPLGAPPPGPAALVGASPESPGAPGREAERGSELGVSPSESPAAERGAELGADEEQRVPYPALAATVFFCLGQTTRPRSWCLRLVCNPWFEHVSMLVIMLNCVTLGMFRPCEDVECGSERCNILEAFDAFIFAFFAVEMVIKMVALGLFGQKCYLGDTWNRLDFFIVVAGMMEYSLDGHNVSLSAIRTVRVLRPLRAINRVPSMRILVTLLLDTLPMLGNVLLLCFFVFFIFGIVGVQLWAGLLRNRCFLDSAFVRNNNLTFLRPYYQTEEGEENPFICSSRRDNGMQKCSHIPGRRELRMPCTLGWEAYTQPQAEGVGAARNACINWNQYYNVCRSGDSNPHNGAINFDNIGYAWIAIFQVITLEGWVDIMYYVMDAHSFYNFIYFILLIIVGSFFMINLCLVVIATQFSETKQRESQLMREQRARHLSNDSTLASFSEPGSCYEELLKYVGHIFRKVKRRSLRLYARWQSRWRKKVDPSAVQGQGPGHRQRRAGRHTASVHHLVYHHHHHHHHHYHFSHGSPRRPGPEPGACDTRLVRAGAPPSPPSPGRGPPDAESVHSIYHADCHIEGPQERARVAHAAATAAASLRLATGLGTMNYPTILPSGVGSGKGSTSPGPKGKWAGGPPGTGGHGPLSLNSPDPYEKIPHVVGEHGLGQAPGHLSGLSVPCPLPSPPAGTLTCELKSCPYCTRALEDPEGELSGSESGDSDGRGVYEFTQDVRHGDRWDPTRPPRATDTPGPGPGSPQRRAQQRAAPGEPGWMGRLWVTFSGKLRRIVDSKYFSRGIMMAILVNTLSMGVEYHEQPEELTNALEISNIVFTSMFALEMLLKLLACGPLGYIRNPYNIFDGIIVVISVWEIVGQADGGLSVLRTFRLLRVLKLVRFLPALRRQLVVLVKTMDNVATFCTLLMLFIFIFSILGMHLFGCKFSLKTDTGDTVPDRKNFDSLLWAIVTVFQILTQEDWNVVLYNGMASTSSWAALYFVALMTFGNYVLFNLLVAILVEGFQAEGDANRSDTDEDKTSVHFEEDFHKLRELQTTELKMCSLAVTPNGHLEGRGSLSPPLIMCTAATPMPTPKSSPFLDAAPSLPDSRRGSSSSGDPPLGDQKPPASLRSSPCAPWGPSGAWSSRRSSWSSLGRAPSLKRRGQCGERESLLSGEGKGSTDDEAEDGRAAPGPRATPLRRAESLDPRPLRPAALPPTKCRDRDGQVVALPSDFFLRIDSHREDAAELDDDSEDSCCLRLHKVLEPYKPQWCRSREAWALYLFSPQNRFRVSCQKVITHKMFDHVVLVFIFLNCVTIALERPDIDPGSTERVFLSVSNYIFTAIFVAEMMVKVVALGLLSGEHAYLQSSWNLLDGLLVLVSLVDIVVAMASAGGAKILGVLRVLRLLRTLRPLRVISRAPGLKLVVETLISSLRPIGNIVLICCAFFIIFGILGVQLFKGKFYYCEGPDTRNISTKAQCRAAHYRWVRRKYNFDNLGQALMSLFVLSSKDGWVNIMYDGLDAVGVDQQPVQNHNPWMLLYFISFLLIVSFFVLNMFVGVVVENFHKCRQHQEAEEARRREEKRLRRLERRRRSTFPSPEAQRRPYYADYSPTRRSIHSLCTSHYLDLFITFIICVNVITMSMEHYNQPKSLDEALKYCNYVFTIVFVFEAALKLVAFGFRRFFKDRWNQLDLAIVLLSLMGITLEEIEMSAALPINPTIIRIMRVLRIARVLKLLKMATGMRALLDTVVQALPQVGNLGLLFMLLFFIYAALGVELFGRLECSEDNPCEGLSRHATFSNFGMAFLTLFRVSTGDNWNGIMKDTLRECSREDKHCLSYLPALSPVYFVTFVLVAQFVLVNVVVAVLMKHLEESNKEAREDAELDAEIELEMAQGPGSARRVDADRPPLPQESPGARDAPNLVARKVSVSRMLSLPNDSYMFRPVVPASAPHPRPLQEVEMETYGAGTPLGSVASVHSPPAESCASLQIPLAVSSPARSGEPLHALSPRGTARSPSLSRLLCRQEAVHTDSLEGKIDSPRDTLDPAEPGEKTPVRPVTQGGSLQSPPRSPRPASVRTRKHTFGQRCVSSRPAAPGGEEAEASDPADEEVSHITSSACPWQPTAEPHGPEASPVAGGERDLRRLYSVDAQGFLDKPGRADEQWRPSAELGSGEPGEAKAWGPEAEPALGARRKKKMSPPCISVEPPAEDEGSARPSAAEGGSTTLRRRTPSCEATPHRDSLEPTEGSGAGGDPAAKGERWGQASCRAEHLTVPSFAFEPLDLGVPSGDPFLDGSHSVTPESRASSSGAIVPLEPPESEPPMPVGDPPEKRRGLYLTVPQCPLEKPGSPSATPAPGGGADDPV
The assay is described as follows: Intracellular calcium concentration measurement (Fluo-4 AM) in stable cells expressing human Cav3.2 channels, buffer A / buffer B. The format is cell-based. The note with it: Table 1; buffer A, equilibrium potential of potassium −92 mV; read-out: Inhibitory action of buffer A (inactivated state). From the text: Construction of Stable Cells Expressing Human Cav3.2 Channels
(1) A sequence produced by incorporating HindIII site and kozak sequence (GCCACC) into the 5′-terminal side of human Cav3.2 channel ORF (Open Reading Frame) gene and incorporating Kpnl site into the 3′-terminal side was incorporated into pcDNA3.1(+) (Thermo-Fisher Scientific, Inc., #V790-20), and the plasmid was transfected into HEK293 cells (ATCC No. CRL-1573) according to the protocol of FuGENE (registered trademark) HD Transfection Reagent (PROMEGA #E2311).
(2) Method for Measuring Intracellular Calcium Concentration
In the present measurement system, buffer A and buffer B having different potassium ion concentrations were used in order to evaluate the state-dependent Cav3.2 inhibitory action of a test compound.
Stable cell line expressing human Cav3.2 channels, which had been produced in (1), was seeded in a 96-well plate using DMEM medium including 10% FBS, and the cells were cultured for 48 hours under the conditions of 37° C. and 5% CO2. Subsequently, the medium was removed, and various wells that had been washed with a base buffer were treated with 80 μL of a fluorescent dye solution containing a mixed liquid of 22 μg of calcium fluorescence indicator Fluo-4 AM (Dojindo Laboratories Co., Ltd., #F311), 20 μL of DMSO, […] of 10% Pluronic F-127 (Thermo-Fisher Scientific, Inc., #P6866), and 4 mL of a base buffer. The cells were left to stand for 45 minutes at room temperature in the dark, and then the cells were washed with buffer A or buffer B. Solutions having various test compound concentrations and respectively containing buffer A or buffer B were added to the respective wells, the respective solutions containing DMSO at the same final concentration as that of the test compound as negative control, or containing the test compound dissolved in 100% DMSO at a final concentration of 0.1%. The cells were left to stand for another 15 minutes at room temperature in the dark, and the cells were analyzed using the following method using a microplate reader, EnVision (PerkinElmer, Inc.). First, the background fluorescence for each well was measured, subsequently an ionophore was added to the well, and the fluorescence of the baseline was measured. Subsequently, buffer A or buffer B containing added KCl at a concentration of 83.8 mM or 91.8 mM was added to each well, and an increase in fluorescence caused by a calcium influx generated by that stimulus was measured for 10 seconds. The percentage inhibition was calculated from the maximum fluorescence increment from the baseline, and the logarithmic value of the test compound concentration and the inhibitory activity were plotted to calculate the IC50 value. The analysis was carried out by measuring the fluorescence at 510 nm emitted when the cells were irradiated with exciting light at 485 nm.
Base buffer: 140 mM NaCl, 5 mM KCl, 1 mM MgCl2, 0.5 mM CaCl2, 10 mM Glucose, and 10 mM HEPES, pH 7.3
Buffer A: Equilibrium potential of potassium: −92 mV
Consider `C[C@@H](NC(=O)C1CC1c1nc2ccccc2[nH]1)c1cnc(OCC(F)(F)F)s1` (single isomer, unassigned) [Example 8B], for which the IC50 was over 10000 nM. In the case of `C[C@@H](NC(=O)C1CC1c1nc2ccccc2[nH]1)c1ccc(C(F)(F)F)s1` (single isomer, unassigned) [Example 5B], the IC50 fell in the range of 1000 to 10000 nM. With `Cc1cc([C@@H](C)NC(=O)C2CC2c2nc3ccccc3[nH]2)sc1OCC(F)(F)F` (single isomer, unassigned) [Example 1B], the IC50 was 1000 to 10000 nM. As for `C[C@@H](NC(=O)[C@@H]1CCN(c2nc3ccccc3s2)C1)c1ccc(OCC(F)(F)F)s1` [Example 13, (R)-1-(benzo[d]thiazol-2-yl)-N—((R)-1-(5-(2,2,2-trifluoroethoxy)thiophen-2-yl)ethyl)pyrrolidine-3-carboxamide], the IC50 was over 10000 nM. Take `C[C@@H](NC(=O)C1CC1c1nc2ccccc2[nH]1)c1ncc(Br)s1` (single isomer, unassigned) [Example 11B]: the IC50 is over 10000 nM. On to `C[C@H](NC(=O)C1CC1c1nc2ccccc2[nH]1)c1cnc(OCC(F)(F)F)s1` (single isomer, unassigned) [Example 7A], for which the IC50 is 1000 to 10000 nM. The same measure, in the same setting: in the case of `C[C@@H](NC(=O)C1CC1c1nc2ccccc2[nH]1)c1ccc(Br)s1` (single isomer, unassigned) [Example 6B] it was 1000 to 10000 nM; in that of `C[C@@H](NC(=O)C1CC1c1nc2ccccc2[nH]1)c1ncc(Br)s1` (single isomer, unassigned) [Example 11A], 1000 to 10000 nM. For the compound `C[C@@H](NC(=O)C1CC1c1nc2ccccc2n1C)c1ccc(OCC(F)(F)F)s1` (single isomer, unassigned) [Example 4B], the IC50 was 1000 to 10000 nM.

The same assay, now with this note: Table 1; buffer B, equilibrium potential of potassium −110 mV; read-out: Inhibitory action of buffer B (resting state or closed state).
In the case of `C[C@@H](NC(=O)C1CC1c1nc2ccccc2[nH]1)c1ccc(C(F)(F)F)s1` (single isomer, unassigned) [Example 5B], the IC50 was 1000 to 10000 nM. Consider `C[C@H](NC(=O)C1CC1c1nc2ccccc2[nH]1)c1cnc(OCC(F)(F)F)s1` (single isomer, unassigned) [Example 7A], for which the IC50 was over 10000 nM. For `C[C@@H](NC(=O)C1CC1c1nc2ccccc2[nH]1)c1ccc(Br)s1` (single isomer, unassigned) [Example 6B], the IC50 is over 10000 nM.

For `C[C@@H](NC(=O)C1CC1c1nc2ccccc2[nH]1)c1ncc(Br)s1` (single isomer, unassigned) [Example 11A], the IC50 is over 10000 nM. On to `C[C@@H](NC(=O)C1CC1c1nc2ccccc2n1C)c1ccc(OCC(F)(F)F)s1` (single isomer, unassigned) [Example 4B], for which the IC50 is over 10000 nM.

The same assay, now with this note: Tables 2 to 6; buffer A, equilibrium potential of potassium −92 mV; read-out: Inhibitory action of buffer A (inactivated state).
Take `C[C@@H](NC(=O)C1CC1c1nc2ccccc2[nH]1)c1ccc(C(N)=O)s1` (single isomer, unassigned) [Example 30]: the IC50 was over 10000 nM. Same read-out and setting: in the case of `C[C@@H](NC(=O)C1CC1c1nc(-c2ccccc2)c[nH]1)c1ccc(OCC(F)(F)F)s1` (single isomer, unassigned) [Example 31B] it was 100 to 1000 nM. `C[C@@H](NC(=O)C1CC1c1nc2cc(Cl)ccc2[nH]1)c1ccc(OCC(F)(F)F)s1` (single isomer, unassigned) [Example 53B]: the IC50 is 100 to 1000 nM.

Take `C[C@@H](NC(=O)C1CC1c1nc2cnccc2[nH]1)c1ccc(OCC(F)(F)F)s1` (mixture of isomers) [Example 28, Trans-2-(1H-imidazo[4,5-c]pyridin-2-yl)-N—((R)-1-(5-(2,2,2-trifluoroethoxy)thiophen-2-yl)ethyl)cyclopropane-1-carboxamide]: the IC50 is over 10000 nM. Consider `CC(NC(=O)[C@H]1C[C@@H]1c1nc2ccccc2[nH]1)c1nc2ccc(F)cc2[nH]1` (single isomer, unassigned) [Example 127A], for which the IC50 fell in the range of 100 to 1000 nM. Still for that read-out and setting: in the case of `C[C@@H](NC(=O)C1CC1c1nc2cc(Cl)ccc2[nH]1)c1ccc(OCC(F)(F)F)s1` (single isomer, unassigned) [Example 53A] it was at most 100 nM; in that of `C[C@@H](NC(=O)C1CC1c1nc2c(Cl)cccc2[nH]1)c1ccc(OCC(F)(F)F)s1` (single isomer, unassigned) [Example 122A], at most 100 nM. As to `C[C@@H](NC(=O)[C@H]1C[C@@H]1c1nc2ccccc2[nH]1)c1ccc(C(=O)N2CCC(F)(F)CC2)s1` [Example 94, (1S,2S)-2-(1H-benzo[d]imidazol-2-yl)-N—((R)-1-(5-(4,4-difluoropiperidine-1-carbonyl)thiophen-2-yl)ethyl)cyclopropane-1-carboxamide], the IC50 lay within 100 to 1000 nM. Take `C[C@@H](NC(=O)C1CC1c1nccn1Cc1ccccc1)c1ccc(OCC(F)(F)F)s1` (single isomer, unassigned) [Example 38B]: the IC50 is over 10000 nM. For `CC(C)[C@@H](NC(=O)C1CC1c1nc2ccccc2[nH]1)c1ccc(OCC(F)(F)F)s1` (single isomer, unassigned) [Example 44], the IC50 was at most 100 nM.

With `C[C@@H](NC(=O)C1CC1c1nc2ccccc2o1)c1ccc(OCC(F)(F)F)s1` (single isomer, unassigned) [Example 40A], the IC50 is over 10000 nM. Same read-out and setting: in the case of `COc1ccc2[nH]c(C3CC3C(=O)N[C@H](C)c3ccc(OCC(F)(F)F)s3)nc2c1` (single isomer, unassigned) [Example 71A] it was 100 to 1000 nM; in that of `C[C@@H](NC(=O)C1CC1c1nc2ccccc2[nH]1)c1ccc(C(=O)N2CCOCC2)s1` (stereo in doubt) [Example 56, Trans-2-(1H-benzo[d]imidazol-2-yl)-N—((R)-1-(5-(morpholine-4-carbonyl)thiophen-2-yl)ethyl)cyclopropane-1-carboxamide], 1000 to 10000 nM; in that of `C[C@@H](NC(=O)C1CC1c1ccc2ccccc2n1)c1ccc(Br)s1` (single isomer, unassigned) [Example 45], 100 to 1000 nM. Regarding `CC(C)[C@H](NC(=O)[C@H]1C[C@@H]1c1nc2ccccc2[nH]1)c1ccc(C(F)(F)F)s1` [Example 115, (1S,2S)-2-(1H-benzo[d]imidazol-2-yl)-N—((S)-2-methyl-1-(5-(trifluoromethyl)thiophen-2-yl)propyl)cyclopropane-1-carboxamide], the IC50 fell in the range of 100 to 1000 nM.

`C[C@@H](NC(=O)C1CC1c1nc2ccccc2[nH]1)c1ccc(C(=O)N2CCNCC2)s1` (stereo in doubt) [Example 75, Trans-2-(1H-benzo[d]imidazol-2-yl)-N—((R)-1-(5-(piperazine-1-carbonyl)thiophen-2-yl)ethyl)cyclopropane-1-carboxamide]: the IC50 lay in the range of 1000 to 10000 nM. Consider `O=C(N[C@@H](c1ccc(C(F)(F)F)s1)C1CC1)[C@H]1C[C@@H]1c1nc2ccccc2[nH]1` [Example 69, (1S,2S)-2-(1H-benzo[d]imidazol-2-yl)-N—((R)-cyclopropyl(5-(trifluoromethyl)thiophen-2-yl)methyl)cyclopropane-1-carboxamide], for which the IC50 was 100 to 1000 nM. Take `C[C@@H](NC(=O)C1CC1c1ccccn1)c1ccc(OCC(F)(F)F)s1` (single isomer, unassigned) [Example 23A]: the IC50 is 1000 to 10000 nM. Consider `C[C@@H](NC(=O)[C@H]1C[C@@H]1c1nc2ccccc2[nH]1)c1cc2ccc(F)cc2s1` [Example 119, (1S,2S)-2-(1H-benzo[d]imidazol-2-yl)-N—((R)-1-(6-fluorobenzo[b]thiophen-2-yl)ethyl)cyclopropane-1-carboxamide], for which the IC50 is at most 100 nM. In the case of `C[C@@H](NC(=O)[C@H]1C[C@@H]1c1nc2ccccc2[nH]1)c1cc2c(F)cccc2o1` [Example 97, (1S,2S)-2-(1H-benzo[d]imidazol-2-yl)-N—((R)-1-(4-fluorobenzofuran-2-yl)ethyl)cyclopropane-1-carboxamide], the IC50 was 100 to 1000 nM. In the case of `C[C@@H](NC(=O)C1CC1c1nc2cc(Cl)ccc2[nH]1)c1cnc(OCC(F)(F)F)s1` (single isomer, unassigned) [Example 64B], the IC50 fell in the range of 1000 to 10000 nM. `C[C@@H](NC(=O)[C@H]1C[C@@H]1c1nc2ccccc2[nH]1)c1ccc(C(=O)N2CC(F)(F)C2)s1` [Example 83, (1S,2S)-2-(1H-benzo[d]imidazol-2-yl)-N—((R)-1-(5-(3,3-difluoroazetidine-1-carbonyl)thiophen-2-yl)ethyl)cyclopropane-1-carboxamide]: the IC50 was in the range of 100 to 1000 nM.
